Measured values published in PMC6412366, “The Limitations of Collagen/CPP Hybrid Peptides as Carriers for Cancer Drugs to FaDu Cells” (Molecules, 2019).

Test system: FaDu cell surface
Assay: Suramin wash (competitive binding) of FL8V1-treated FaDu cells
Type: cell-based, human
Conditions: concluded from reversed incubation order
Protocol: FaDu cells were seeded into MatTek dishes (No. 1.5 coverglass, 35 mm). After the cells were at least 70% confluent, the media was removed and the cells were gently washed with PBS. […] The cells were washed twice with PBS. Additional EMEM medium was added before the cell cultures were imaged using confocal microscopy (λEX = 488 for FITC tag) using the 60X oil immersion objective.

Cc1ccc(C(=O)Nc2ccc(S(=O)(=O)O)c3cc(S(=O)(=O)O)cc(S(=O)(=O)O)c23)cc1NC(=O)c1cccc(NC(=O)Nc2cccc(C(=O)Nc3cc(C(=O)Nc4ccc(S(=O)(=O)O)c5cc(S(=O)(=O)O)cc(S(=O)(=O)O)c45)ccc3C)c2)c1 [suramin]
binding of suramin to the FaDu cell surface: does not bind
